Experimental data taken from patent US20170087174A1, “COMBINATION THERAPY REGIMEN FOR TREATMENT OF HCV” (JANSSEN PHARMACEUTICALS, INC., priority 2015, published 2017).
Read-outs that look alike come from different tables or passages of the source.

Experiments:
[1] = test system: CYP (cytochrome P450 enzymes); experiment: CYP inhibition in vitro
OATP1B1 = molecular target: T1, OATP1B1 (Homo sapiens, UniProt Q9Y6L6); conditions: in vitro; cited from earlier work
T1 sequence (Q9Y6L6 1-691): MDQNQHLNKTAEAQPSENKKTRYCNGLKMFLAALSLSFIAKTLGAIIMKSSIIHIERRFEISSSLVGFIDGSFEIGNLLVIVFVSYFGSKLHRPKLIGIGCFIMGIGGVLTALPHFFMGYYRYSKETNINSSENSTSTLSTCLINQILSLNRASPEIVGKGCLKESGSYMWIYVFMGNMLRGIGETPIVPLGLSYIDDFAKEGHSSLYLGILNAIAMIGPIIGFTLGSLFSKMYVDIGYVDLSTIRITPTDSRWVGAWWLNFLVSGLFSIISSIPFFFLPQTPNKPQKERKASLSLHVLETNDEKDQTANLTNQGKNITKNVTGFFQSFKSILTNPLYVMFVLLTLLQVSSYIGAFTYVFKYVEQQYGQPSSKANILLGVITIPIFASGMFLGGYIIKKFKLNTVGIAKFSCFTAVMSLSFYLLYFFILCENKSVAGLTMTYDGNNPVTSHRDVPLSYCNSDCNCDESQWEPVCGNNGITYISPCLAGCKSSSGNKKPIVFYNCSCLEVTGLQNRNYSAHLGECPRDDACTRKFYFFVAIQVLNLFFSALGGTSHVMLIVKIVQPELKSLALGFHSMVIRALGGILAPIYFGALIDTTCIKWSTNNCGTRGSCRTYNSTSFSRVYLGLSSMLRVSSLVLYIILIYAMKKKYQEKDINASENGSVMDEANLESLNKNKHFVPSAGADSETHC

[2] = PK of single agents vs fixed dose combinations (FDC), single oral dose in healthy volunteers; type: in vivo, human; conditions: for Cmax: read-out: Cmax (mean ± SD); for AUC(0-t): read-out: AUClast (mean ± SD); for AUC(0-inf): read-out: AUC∞ (mean ± SD)
Method: SMV (100 mg), ODV (50 mg), and Compound (III) (800 mg) were administered as three different formulations or together as single doses in vivo to healthy volunteers. The arms of the study included: • Arm 1 (Reference Arm): Single oral doses of single agents, one SMV 100-mg capsule, one ODV 50-mg tablet as granule layered solid dispersion with copovidone and poloxamers, and two Compound (III) 400-mg tablets, administered together. • Arm 2: Single oral dose of fixed dose combination (FDC02): SMV 100 mg+ODV 50 mg as a spray dried solid dispersion with HPMC-AS L in a ratio ODV/HPMC-AS L 1/1 w/w+Compound (III) 800 mg • Arm 3: Single oral dose of fixed dose combination (FDC04): SMV 100 mg+ODV 50 mg as a spray dried solid dispersion with HPMC-AS L in a ratio ODV/HPMC-AS L 1/3 w/w+Compound (III) 800 mg • Arm 4: Single oral dose of fixed dose combination (FDC01): SMV 100 mg+ODV 50 mg as a spray dried solid dispersion with copovidone and poloxamers+Compound (III) 800 mg
PK parameters, including Cmax, tmax, AUClast, and AUC∞ were measured for Compound (III), ODV, SMV, and metabolites Compound A-I and Compound A-3 for each Arm of the study. Arms that included fixed dose combinations (FDC) (Arm 2, Arm 3, and Arm 4) were then compared to a single oral dose (Arm 1, the reference Arm). Table 9, Table 10, Table 11, Table 12 and Table 13 display relevant PK parameters and FIG. 9, FIG. 10, FIG. 11, FIG. 12, and FIG. 13 depict the plasma concentration over time of SMV, ODV, Compound A-1, and Compound A-3 for each Arm of the study.

P-gp = P-gp (Homo sapiens, UniProt P08183); conditions: in vitro; cited from earlier work
P-gp, sequence (P08183 whole entry): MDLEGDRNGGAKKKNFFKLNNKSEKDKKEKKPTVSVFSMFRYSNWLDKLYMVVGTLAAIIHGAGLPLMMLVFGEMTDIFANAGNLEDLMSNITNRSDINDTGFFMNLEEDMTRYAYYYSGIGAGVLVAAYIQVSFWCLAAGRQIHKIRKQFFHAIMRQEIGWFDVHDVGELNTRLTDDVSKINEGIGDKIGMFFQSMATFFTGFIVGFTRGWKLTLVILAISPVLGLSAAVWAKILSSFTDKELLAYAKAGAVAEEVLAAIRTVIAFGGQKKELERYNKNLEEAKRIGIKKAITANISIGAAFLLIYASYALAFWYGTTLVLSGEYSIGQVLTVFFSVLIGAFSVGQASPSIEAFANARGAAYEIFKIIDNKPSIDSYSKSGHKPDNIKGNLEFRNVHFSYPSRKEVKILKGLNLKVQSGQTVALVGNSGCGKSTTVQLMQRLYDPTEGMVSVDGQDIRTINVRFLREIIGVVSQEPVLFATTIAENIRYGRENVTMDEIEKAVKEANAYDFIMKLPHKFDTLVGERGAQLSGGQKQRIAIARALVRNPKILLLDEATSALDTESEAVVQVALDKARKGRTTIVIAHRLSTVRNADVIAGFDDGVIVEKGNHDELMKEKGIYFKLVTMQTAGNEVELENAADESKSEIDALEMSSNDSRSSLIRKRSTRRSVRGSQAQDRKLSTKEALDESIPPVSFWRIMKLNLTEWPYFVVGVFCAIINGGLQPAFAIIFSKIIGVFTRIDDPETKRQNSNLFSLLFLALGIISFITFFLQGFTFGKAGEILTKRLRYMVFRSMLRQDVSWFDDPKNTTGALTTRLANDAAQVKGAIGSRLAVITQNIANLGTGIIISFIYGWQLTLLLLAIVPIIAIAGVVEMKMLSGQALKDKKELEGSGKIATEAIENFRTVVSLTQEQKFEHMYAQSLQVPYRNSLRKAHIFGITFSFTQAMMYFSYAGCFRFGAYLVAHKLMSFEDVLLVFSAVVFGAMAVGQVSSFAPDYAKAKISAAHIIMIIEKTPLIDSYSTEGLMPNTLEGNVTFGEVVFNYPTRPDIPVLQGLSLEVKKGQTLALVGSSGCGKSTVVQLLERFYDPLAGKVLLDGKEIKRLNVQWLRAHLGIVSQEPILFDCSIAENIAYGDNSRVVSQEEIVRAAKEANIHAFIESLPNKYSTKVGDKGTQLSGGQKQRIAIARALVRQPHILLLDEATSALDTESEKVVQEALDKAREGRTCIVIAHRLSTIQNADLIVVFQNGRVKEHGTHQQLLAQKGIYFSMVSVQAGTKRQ

[3] = Phase-1 drug-drug interaction study in healthy volunteers (Compound (III) 800 mg, SMV 150 mg, Odalasvir 150 mg loading then 50 mg, once daily): plasma PK; type: in vivo, human; conditions: both sexes, human, in vivo; for AUC0-24: read-out: AUC0-24; for Cmax: read-out: Cmax
Source text: The following daily doses were employed:

[4] = Arm 2 (FDC02) vs reference (Arm 1)
[5] = Arm 3 (FDC04) vs reference (Arm 1)
[6] = Arm 4 (FDC01) vs reference (Arm 1)
[7] = human, in vivo, Arm 1 (reference): single agents together
[8] = Group 1, Day 3, Compound (III) alone
[9] = Group 1, Day 13 (Compound (III) + SMV)
[10] = Group 1, Day 23 (Compound (III) + SMV + ODV)
[11] = Group 2, Day 3 (Compound (III) alone)
[12] = Group 2, Day 13 (Compound (III) + SMV)
[13] = Group 2, Day 23 (Compound (III) + SMV + ODV)

Q: With CC(C)OC(=O)[C@H](C)N[P@](=O)(OC[C@@]1(F)O[C@@H](n2ccc(=O)[nH]c2=O)[C@](C)(O)[C@@H]1O)Oc1ccccc1 [Compound (III), isopropyl ((S)-(((2S,3S,4R,5R)-5-(2,4-dioxo-3,4-dihydropyrimidin-1 (2H)-yl)-2-fluoro-3,4-dihydroxy-4-methyltetrahydrofuran-2-yl)methoxy)(phenoxy)phosphoryl)-L-alaninate] as the molecule, how does the IC50 [1] read?
A: > 26 µM

Q: And the “CYP inhibition potential (in words)” value ([1]; on any CYP)?
A: limited CYP inhibition potential

Q: And the “OATP1B1 inhibition (in words)” value (OATP1B1)?
A: no in vitro inhibition

Q: What about the “t1/2term (mean ± SD)” value ([2]; Arm 1 (reference): single agents together) of the same molecule?
A: 36 ± 6 min

Q: And the “Least Square Means Ratio, AUClast” value [2, 4]?
A: 110.22%

Q: What about the “Least Square Means Ratio, AUC∞” value [2, 4] of the same molecule?
A: 111.86%

Q: What about the “Least Square Means Ratio, Cmax” value [2, 4] of the same molecule?
A: 109.68%

Q: And the “t1/2term (mean ± SD)” value ([2]; Arm 2: FDC02)?
A: 42 ± 12 min

Q: What about the “tmax (median [range])” value ([2]; Arm 2: FDC02) of the same molecule?
A: 2.00 (0.50-4.00) h

Q: What about the “Least Square Means Ratio, AUClast” value [2, 5] of the same molecule?
A: 127.06%

Q: And the “Least Square Means Ratio, AUC∞” value [2, 5]?
A: 138.97%

Q: And the “Least Square Means Ratio, Cmax” value [2, 5]?
A: 122.40%

Q: And the “t1/2term (mean ± SD)” value ([2]; Arm 3: FDC04)?
A: 42 ± 6 min

Q: And the “tmax (median [range])” value ([2]; Arm 3: FDC04)?
A: 2.00 (1.00-4.00) h

Q: What about the “Least Square Means Ratio, AUClast” value [2, 6] of the same molecule?
A: 151.72%

Q: What about the “Least Square Means Ratio, AUC∞” value [2, 6] of the same molecule?
A: 144.80%

Q: What about the “Least Square Means Ratio, Cmax” value [2, 6] of the same molecule?
A: 145.56%

Q: And the “t1/2term (mean ± SD)” value ([2]; Arm 4: FDC01)?
A: 36 ± 6 min

Q: What about the “tmax (median [range])” value ([2]; Arm 4: FDC01) of the same molecule?
A: 2.00 (1.00-4.00) h

Q: What about the Cmax ([2]; human, in vivo, Arm 1 (reference): single agents together, SMV 100-mg capsule, ODV 50-mg tablet, two Compound (III) 400-mg tablets) of the same molecule?
A: 484 ± 177 ng/mL

Q: What about the AUC(0-t) [2, 7] of the same molecule?
A: 1160 ± 497 ng·h/mL

Q: And the AUC(0-inf) [2, 7]?
A: 1180 ± 524 ng·h/mL

Q: And the Tmax ([2]; human, in vivo, Arm 1 (reference): single agents together, read-out: tmax (median [range]))?
A: 120 min

Q: And the Cmax ([2]; human, in vivo, Arm 2: FDC02, SMV 100 mg + ODV 50 mg (ODV/HPMC-AS L 1/1 w/w) + Compound (III) 800 mg)?
A: 544 ± 225 ng/mL

Q: And the AUC(0-t) ([2]; human, in vivo, Arm 2: FDC02)?
A: 1260 ± 411 ng·h/mL

Q: And the AUC(0-inf) ([2]; human, in vivo, Arm 2: FDC02)?
A: 1300 ± 420 ng·h/mL

Q: What about the Cmax ([2]; human, in vivo, Arm 3: FDC04, SMV 100 mg + ODV 50 mg (ODV/HPMC-AS L 1/3 w/w) + Compound (III) 800 mg) of the same molecule?
A: 617 ± 295 ng/mL

Q: What about the AUC(0-t) ([2]; human, in vivo, Arm 3: FDC04) of the same molecule?
A: 1440 ± 450 ng·h/mL

Q: And the AUC(0-inf) ([2]; human, in vivo, Arm 3: FDC04)?
A: 1580 ± 434 ng·h/mL

Q: What about the Cmax ([2]; human, in vivo, Arm 4: FDC01, SMV 100 mg + ODV 50 mg (copovidone and poloxamers) + Compound (III) 800 mg) of the same molecule?
A: 745 ± 381 ng/mL

Q: What about the AUC(0-t) ([2]; human, in vivo, Arm 4: FDC01) of the same molecule?
A: 1830 ± 866 ng·h/mL

Q: And the AUC(0-inf) ([2]; human, in vivo, Arm 4: FDC01)?
A: 1790 ± 889 ng·h/mL

Q: And the “P-gp inhibition (in words)” value (P-gp)?
A: no in vitro inhibition

Q: What about the AUC0-24 [3, 8] of the same molecule?
A: 292 ng·h/mL

Q: What about the Cmax [3, 8] of the same molecule?
A: 162 ng/mL

Q: And the AUC0-24 [3, 9]?
A: 1000 ng·h/mL

Q: What about the Cmax [3, 9] of the same molecule?
A: 376 ng/mL

Q: What about the AUC0-24 [3, 10] of the same molecule?
A: 2090 ng·h/mL

Q: And the Cmax [3, 10]?
A: 747 ng/mL

Q: And the AUC0-24 [3, 11]?
A: 325 ng·h/mL

Q: What about the Cmax [3, 11] of the same molecule?
A: 151 ng/mL

Q: And the AUC0-24 [3, 12]?
A: 1300 ng·h/mL

Q: And the Cmax [3, 12]?
A: 516 ng/mL

Q: And the AUC0-24 [3, 13]?
A: 2910 ng·h/mL

Q: What about the Cmax [3, 13] of the same molecule?
A: 950 ng/mL
